Laboratory results published in patent EP0452680A1 (priority 1990, dated 1991).

What was measured:
in vitro [1] = conditions: human, hela cells
in vitro [2] = conditions: monkey, vero cells
in vitro [3] = conditions: bovine, mdbk cells
in vitro [4] = conditions: monkey, vero cells; remark: listed apart in the source
Herpesviren = test: General statement on antiviral activity (no specific test named); conditions: qualitative statement in the description

Row | SMILES | MNTC (in vitro [1]) [µg/mL] | MNTC (in vitro [2]) [µg/mL] | MNTC (in vitro [3]) [µg/mL] | MNTC (in vitro [4]) [µg/mL] | antivirale Aktivität gegen Herpesviren (Herpesviren)
1 | CC(C)OCC(COC(C)C)OCn1cnc2nc(N)ncc21 [Beispiel 6.7., 2-Amino-7-[1,3-bis(isopropoxy)-2-propoxymethyl]purin] | > 400 | > 400 | > 400 | > 400 | besonders hohen antiviralen Aktivität
2 | CC(C)OCC(CO)OCn1cnc2nc(N)ncc21 (centres unmarked) [Beispiel 6.10., 2-Amino-7-(1-hydroxy-3-isopropoxy-2-propoxymethyl)-purin] | > 400 | > 400 | > 400 | > 400 | besonders hohen antiviralen Aktivität
3 | Nc1ncc2c(ncn2COC(CO)CO)n1 [Beispiel 6.12., 2-Amino-7-(1,3-dihydroxy-2-propoxymethyl)-purin] | 44.4 | 133 | > 400 | 133 | besonders hohen antiviralen Aktivität
4 | Nc1nc2ncn(COC(CO)CO)c2c(=O)[nH]1 [reference compound] | > 400 | > 400 | > 400 | > 400 | –
5 | Nc1nc(O)c2ncn(COC(CO)CO)c2n1 [reference compound] | > 400 | > 400 | > 133 | > 400 | –
